According to PMC3310271 (Journal of agricultural and food chemistry, 2011):
Like-named read-outs stand apart in the source and are kept apart here.

Key:
[1] = TIM-1 gastrointestinal model bioaccessibility of maqui berry anthocyanins; assay type: in vitro ADME; conditions: for Total Bioaccessible Anthocyanin Amount: maqui berry extract in TIM-1, jejunal + ileal absorption over 4 h
diabetic C57b1/6J mice = conditions: gavage; cited from earlier work
[2] = tested on: colon cancer cells (HCT116); conditions: HCT116, among phenolic acids formed in TIM-2; cited from earlier work
[3] = first 4 h; cited from earlier work
[4] = maqui berry extract in TIM-1, over 4 h

Compound: OC[C@H]1O[C@@H](Oc2cc3c(O)cc(O)cc3[o+]c2-c2cc(O)c(O)c(O)c2)[C@H](O)[C@@H](O)[C@@H]1O [Delphinidin-3-glucoside]
- Total Bioaccessible Anthocyanin Amount [1]: 3.02 ± 1.83 mg
- Recovery in Ileal Efflux as a % of Intake [1, 4]: 0.87 +/− 0.78 % of intake
- Total Bioaccessibility as % of intake [1, 4]: 3.15 +/− 1.91 % of intake

Compound: OC[C@H]1O[C@@H](Oc2cc(O)cc3[o+]c(-c4cc(O)c(O)c(O)c4)c(O[C@@H]4O[C@H](CO)[C@@H](O)[C@H](O)[C@H]4O[C@@H]4OC[C@@H](O)[C@H](O)[C@H]4O)cc23)[C@H](O)[C@@H](O)[C@@H]1O [Delphinidin-3-sambubioside-5-glucoside]
- Recovery in Ileal Efflux as a % of Intake [1, 4]: 0.32+/− 0.32 % of intake

Compound: COc1cc(-c2[o+]c3cc(O)cc(O)c3cc2O[C@@H]2O[C@H](CO)[C@@H](O)[C@H](O)[C@H]2O)cc(OC)c1O [malvidin-3-O-glucoside]
- Effect on blood glucose levels (diabetic C57b1/6J mice): significantly hypoglycemic

Compound: O=C(O)Cc1ccc(O)c(O)c1 [3,4-dihydroxyphenylacetic acid]
- Antiproliferative activity [2]: antiproliferative activity

Compound: Cyanidin-3-sambubioside-5-glucoside + cyanidin3,5-diglucoside
- Total Bioaccessibility as % of intake [1]: 17.84 +/− 2.61 % of intake

Compound: OC[C@H]1O[C@@H](Oc2cc3c(O[C@@H]4O[C@H](CO)[C@@H](O)[C@H](O)[C@H]4O)cc(O)cc3[o+]c2-c2cc(O)c(O)c(O)c2)[C@H](O)[C@@H](O)[C@@H]1O [Delphinidin-3,5-diglucoside]
- Total Bioaccessible Anthocyanin Amount [1]: 1.17 ± 0.57 mg
- Recovery in Ileal Efflux as a % of Intake [1, 4]: 0.77 +/− 0.77 % of intake
- Total Bioaccessibility as % of intake [1, 4]: 3.61 +/− 1.74 % of intake
- Total Bioaccessibility as % of intake ([1]; maqui berry extract in TIM-1, over 4 h, listed as delphinidin-3,5-diglucoside): 3.6 % of intake

Compound: OC[C@H]1O[C@@H](Oc2cc3c(O)cc(O)cc3[o+]c2-c2cc(O)c(O)c(O)c2)[C@H](O[C@@H]2OC[C@@H](O)[C@H](O)[C@H]2O)[C@@H](O)[C@@H]1O [Delphinidin-3-sambubioside]
- Total Bioaccessibility as % of intake [1]: 1.23 +/− 0.49 % of intake
- Recovery in Ileal Efflux as a % of Intake [1, 4]: 0.26 +/− 0.24 % of intake

Compound: OC[C@H]1O[C@@H](Oc2cc3c(O)cc(O)cc3[o+]c2-c2ccc(O)c(O)c2)[C@H](O)[C@@H](O)[C@@H]1O [Cyanidin-3-glucoside]
- Total Bioaccessibility as % of intake [1]: 4.28 +/− 0.67 % of intake
- Recovery in ileostomy patients [3]: 1.5%
